How the values were obtained:
Format in all cases: cell-based, human
[1] = system: HCT 116 cells transduced with the PDE5A DD derived GFP constructs; experiment: Response to Vardenafil, GFP expression by FACS in HCT116; conditions: for MFI / Stabilization ratio with Vardenafil: 48 hours, HCT116; for Basal: Table 15, MFI with DMSO / parental HCT116, Vardenafil experiment
Description: (§1) Mutations were created in PDE5A (535-860) catalytic domain using site directed mutagenesis and the mutants were cloned as AcGFP fusion into pELNS vector carrying mCherry marker and packaged in lentiviral vectors. HCT116 cells were transduced with the constructs and stable integrants were selected by cell sorting using mCherry marker. Cells were treated with vehicle (dimethyl sulfoxide, DMSO) or 10 μM Vardenafil (VDF) for 48 hours. Following the treatment, cells were analyzed for GFP expression using FACS. Basal expression was calculated as the ratio of GFP signal in the absence of ligand for a given cell line to auto fluorescence of parental HCT-116 cells. Stabilization ratio was calculated as the ratio of the GFP signal observed in the presence of stabilizing ligand to the signal from the same cell line in the absence of ligand.
HCT 116 cells transduced with the PDE5A DD derived GFP constructs were also tested with increasing doses of Vardenafil. The HCT116 cells were incubated for 48 hours with Vardenafil starting at a dose of 0.002 μM to 30 μM. The GFP intensity of the Vardenafil treated samples was compared to the parental untransduced HCT116 and DMSO treated cells for each construct. The mean fluorescence intensity was calculated for each sample and used to calculate the stabilization ratios as well as the basal expression for each construct. The GFP expression was measured using flow cytometry and the mean fluorescence intensity (MFI) was calculated for each sample. The stabilization ratios are shown in Table 13 and Table 14 and the basal expression is show in Table 15.

[2] = system: HCT 116 cells transduced with the PDE5A DD derived GFP constructs; experiment: Response to Tadalafil, GFP expression by FACS in HCT116; conditions: for MFI / Stabilization ratio with Tadalafil: 48 hours, HCT116
Description: as §1, with “PDE5AN (#3) was” for “Mutations were created in PDE5A (535-860) catalytic domain using site directed mutagenesis and the mutants were”, “construct” for “constructs”, “varying doses of Tadalafil (TDF)” for “10 μM Vardenafil (VDF)”, “hrs with doses ranging from 0.01 μM to 100 μM.” for “hours.”
HCT 116 cells transduced with the PDE5A DD derived GFP constructs were also tested with increasing doses of Tadalafil. The HCT116 cells were incubated for 48 hours with Tadalafil starting at dose 0.01 μM to 100 μM. The GFP intensity of the Tadalafil treated samples was compared to the parental untransduced HCT116 and DMSO treated cells for each construct. The mean fluorescence intensity was calculated for each sample and used to calculate the stabilization ratios as well as the basal expression for each construct. The stabilization ratios are shown in Table 19 and Table 20 and the basal expression is show in Table 21.

[3] = system: HCT116 cells transduced with the constructs; experiment: Response to Sildenafil, GFP expression by flow cytometry in HCT116; conditions: for MFI / Stabilization ratio with Sildenafil: 48 hours, HCT116
Description: Similar experiments were performed in HCT116 cells using sildenafil. The above-mentioned DDs were cloned as AcGFP fusion into pELNS vector carrying mCherry marker and packaged in lentiviral vectors. HCT116 cells were transduced with the constructs and stable integrants were selected by cell sorting using mCherry marker. Cells were treated with sildenafil at the following μM concentrations: 0.01, 0.02, 0.05, 0.14, 0.41, 1.23, 3.7, 11.11, 33.33, and 100 for a duration of 48 hours. The fluorescence was analyzed by flow cytometry and the mean fluorescence intensity was calculated for all samples. […] The stabilization ratios are shown in Table 24 and Table 25 and the basal expression is show in Table 26.

PDE5AC (#69): AcGFP fused to C-terminal DD 535-860 of PDE5A (Q589R, N636S, D687A, D764N, S815C), SEQ ID NO. 30
MFI ([1]; DMSO (no Vardenafil)): 9466
Basal [1]: 4.84
Stabilization ratio with Vardenafil ([1]; Vardenafil 0.002 μM vs DMSO): 1.1
MFI ([1]; Vardenafil 0.002 μM): 10817
MFI ([1]; Vardenafil 0.005 μM): 13682
Stabilization ratio with Vardenafil ([1]; Vardenafil 0.014 μM vs DMSO): 2.9
MFI ([1]; Vardenafil 0.014 μM): 27457
Stabilization ratio with Vardenafil ([1]; Vardenafil 0.041 μM vs DMSO): 3.4
MFI ([1]; Vardenafil 0.041 μM): 32264
Stabilization ratio with Vardenafil ([1]; Vardenafil 0.123 μM vs DMSO): 5.3
MFI ([1]; Vardenafil 0.123 μM): 49884
Stabilization ratio with Vardenafil ([1]; Vardenafil 0.370 μM vs DMSO): 7.9
MFI ([1]; Vardenafil 0.370 μM): 74730
Stabilization ratio with Vardenafil ([1]; Vardenafil 1.111 μM vs DMSO): 6.6
MFI ([1]; Vardenafil 1.111 μM): 62065
Stabilization ratio with Vardenafil ([1]; Vardenafil 3.333 μM vs DMSO): 7.0
MFI ([1]; Vardenafil 3.333 μM): 66625
Stabilization ratio with Vardenafil ([1]; Vardenafil 10 μM vs DMSO): 6.8
MFI ([1]; Vardenafil 10 μM): 64380
Stabilization ratio with Vardenafil ([1]; Vardenafil 30 μM vs DMSO): 2.4
MFI ([1]; Vardenafil 30 μM): 22775
MFI ([2]; DMSO (no Tadalafil)): 8822
Stabilization ratio with Tadalafil ([2]; Tadalafil 0.01 μM vs DMSO): 1.1
MFI ([2]; Tadalafil 0.01 μM): 9337
Stabilization ratio with Tadalafil ([2]; Tadalafil 0.02 μM vs DMSO): 1.2
MFI ([2]; Tadalafil 0.02 μM): 10353
Stabilization ratio with Tadalafil ([2]; Tadalafil 0.05 μM vs DMSO): 1.4
MFI ([2]; Tadalafil 0.05 μM): 12365
MFI ([2]; Tadalafil 0.14 μM): 19039
Stabilization ratio with Tadalafil ([2]; Tadalafil 0.41 μM vs DMSO): 3.7
MFI ([2]; Tadalafil 0.41 μM): 32821
Stabilization ratio with Tadalafil ([2]; Tadalafil 1.23 μM vs DMSO): 5.9
MFI ([2]; Tadalafil 1.23 μM): 52033
Stabilization ratio with Tadalafil ([2]; Tadalafil 3.7 μM vs DMSO): 7.1
MFI ([2]; Tadalafil 3.7 μM): 62558
Stabilization ratio with Tadalafil ([2]; Tadalafil 11.11 μM vs DMSO): 7.9
MFI ([2]; Tadalafil 11.11 μM): 69440
Stabilization ratio with Tadalafil ([2]; Tadalafil 33.33 μM vs DMSO): 7.7
MFI ([2]; Tadalafil 33.33 μM): 68289
MFI ([2]; Tadalafil 100 μM): 67259
MFI ([3]; DMSO (no Sildenafil)): 9575
Stabilization ratio with Sildenafil ([3]; Sildenafil 0.01 μM vs DMSO): 1.0
MFI ([3]; Sildenafil 0.01 μM): 9574
Stabilization ratio with Sildenafil ([3]; Sildenafil 0.02 μM vs DMSO): 1.2
MFI ([3]; Sildenafil 0.02 μM): 11755
Stabilization ratio with Sildenafil ([3]; Sildenafil 0.05 μM vs DMSO): 1.2
MFI ([3]; Sildenafil 0.05 μM): 11944
MFI ([3]; Sildenafil 0.14 μM): 19733
Stabilization ratio with Sildenafil ([3]; Sildenafil 0.41 μM vs DMSO): 3.1
MFI ([3]; Sildenafil 0.41 μM): 30090
Stabilization ratio with Sildenafil ([3]; Sildenafil 1.23 μM vs DMSO): 4.6
MFI ([3]; Sildenafil 1.23 μM): 44180
Stabilization ratio with Sildenafil ([3]; Sildenafil 3.70 μM vs DMSO): 5.5
MFI ([3]; Sildenafil 3.70 μM): 52782
Stabilization ratio with Sildenafil ([3]; Sildenafil 11.11 μM vs DMSO): 6.2
MFI ([3]; Sildenafil 11.11 μM): 59723
Stabilization ratio with Sildenafil ([3]; Sildenafil 33.33 μM vs DMSO): 6.8
MFI ([3]; Sildenafil 33.33 μM): 65183
Stabilization ratio with Sildenafil ([3]; Sildenafil 100.00 μM vs DMSO): 5.4
MFI ([3]; Sildenafil 100.00 μM): 51774

PDE5AC (#25): AcGFP fused to C-terminal DD 535-860 of PDE5A (Q541R, F559L, Q589R, H678R, I824T), SEQ ID NO. 35
MFI ([1]; DMSO (no Vardenafil)): 9555
Basal [1]: 4.89
Stabilization ratio with Vardenafil ([1]; Vardenafil 0.002 μM vs DMSO): 1.0
MFI ([1]; Vardenafil 0.002 μM): 9737
Stabilization ratio with Vardenafil ([1]; Vardenafil 0.005 μM vs DMSO): 1.0
MFI ([1]; Vardenafil 0.005 μM): 9694
Stabilization ratio with Vardenafil ([1]; Vardenafil 0.014 μM vs DMSO): 1.0
MFI ([1]; Vardenafil 0.014 μM): 9767
Stabilization ratio with Vardenafil ([1]; Vardenafil 0.041 μM vs DMSO): 1.1
MFI ([1]; Vardenafil 0.041 μM): 10468
Stabilization ratio with Vardenafil ([1]; Vardenafil 0.123 μM vs DMSO): 1.4
MFI ([1]; Vardenafil 0.123 μM): 13348
Stabilization ratio with Vardenafil ([1]; Vardenafil 0.370 μM vs DMSO): 2.1
MFI ([1]; Vardenafil 0.370 μM): 20522
Stabilization ratio with Vardenafil ([1]; Vardenafil 1.111 μM vs DMSO): 4.1
MFI ([1]; Vardenafil 1.111 μM): 38958
Stabilization ratio with Vardenafil ([1]; Vardenafil 3.333 μM vs DMSO): 6.9
MFI ([1]; Vardenafil 3.333 μM): 66337
Stabilization ratio with Vardenafil ([1]; Vardenafil 10 μM vs DMSO): 9.9
MFI ([1]; Vardenafil 10 μM): 94642
Stabilization ratio with Vardenafil ([1]; Vardenafil 30 μM vs DMSO): 12.7
MFI ([1]; Vardenafil 30 μM): 120927
MFI ([2]; DMSO (no Tadalafil)): 9297
Basal expression ([2]; Table 21, MFI with DMSO / parental HCT116, Tadalafil experiment): 7.26
Stabilization ratio with Tadalafil ([2]; Tadalafil 0.01 μM vs DMSO): 1.0
MFI ([2]; Tadalafil 0.01 μM): 9233
Stabilization ratio with Tadalafil ([2]; Tadalafil 0.02 μM vs DMSO): 1.0
MFI ([2]; Tadalafil 0.02 μM): 8860
Stabilization ratio with Tadalafil ([2]; Tadalafil 0.05 μM vs DMSO): 1.0
MFI ([2]; Tadalafil 0.05 μM): 9404
Stabilization ratio with Tadalafil ([2]; Tadalafil 0.14 μM vs DMSO): 1.0
MFI ([2]; Tadalafil 0.14 μM): 9478
Stabilization ratio with Tadalafil ([2]; Tadalafil 0.41 μM vs DMSO): 1.1
MFI ([2]; Tadalafil 0.41 μM): 9858
Stabilization ratio with Tadalafil ([2]; Tadalafil 1.23 μM vs DMSO): 1.3
MFI ([2]; Tadalafil 1.23 μM): 12432
Stabilization ratio with Tadalafil ([2]; Tadalafil 3.7 μM vs DMSO): 2.1
MFI ([2]; Tadalafil 3.7 μM): 19294
Stabilization ratio with Tadalafil ([2]; Tadalafil 11.11 μM vs DMSO): 3.4
MFI ([2]; Tadalafil 11.11 μM): 31763
Stabilization ratio with Tadalafil ([2]; Tadalafil 33.33 μM vs DMSO): 5.8
MFI ([2]; Tadalafil 33.33 μM): 54151
Stabilization ratio with Tadalafil ([2]; Tadalafil 100 μM vs DMSO): 7.6
Stabilization ratio with Tadalafil ([2]; Tadalafil 100 μM vs DMSO, listed as PDE5AN (#25)): highest stabilization ratio
MFI ([2]; Tadalafil 100 μM): 70389
MFI ([3]; DMSO (no Sildenafil)): 10217
Stabilization ratio with Sildenafil ([3]; Sildenafil 0.01 μM vs DMSO): 1.0
MFI ([3]; Sildenafil 0.01 μM): 10169
Stabilization ratio with Sildenafil ([3]; Sildenafil 0.02 μM vs DMSO): 0.9
MFI ([3]; Sildenafil 0.02 μM): 9354
Stabilization ratio with Sildenafil ([3]; Sildenafil 0.05 μM vs DMSO): 1.0
MFI ([3]; Sildenafil 0.05 μM): 10120
Stabilization ratio with Sildenafil ([3]; Sildenafil 0.14 μM vs DMSO): 1.0
MFI ([3]; Sildenafil 0.14 μM): 10128
Stabilization ratio with Sildenafil ([3]; Sildenafil 0.41 μM vs DMSO): 1.0
MFI ([3]; Sildenafil 0.41 μM): 10207
Stabilization ratio with Sildenafil ([3]; Sildenafil 1.23 μM vs DMSO): 1.2
MFI ([3]; Sildenafil 1.23 μM): 12328
Stabilization ratio with Sildenafil ([3]; Sildenafil 3.70 μM vs DMSO): 1.7
MFI ([3]; Sildenafil 3.70 μM): 17466
Stabilization ratio with Sildenafil ([3]; Sildenafil 11.11 μM vs DMSO): 2.6
MFI ([3]; Sildenafil 11.11 μM): 26947
Stabilization ratio with Sildenafil ([3]; Sildenafil 33.33 μM vs DMSO): 4.6
MFI ([3]; Sildenafil 33.33 μM): 46897
Stabilization ratio with Sildenafil ([3]; Sildenafil 100.00 μM vs DMSO): 5.1
MFI ([3]; Sildenafil 100.00 μM): 51774
Basal expression ([3]; Table 26, MFI with DMSO / parental HCT116, Sildenafil experiment): 7.9

Reference: patent US11891634B2, “PDE5A destabilizing domains” (The Board of Trustees of the Leland Stanford Junior …, priority 2017, dated 2024)
